This note sets out measurements from patent US10131657B2, “Bromodomain inhibitors” (AbbVie Inc., priority 2013, dated 2018).

The test system of the experiment is breast cancer cell line MX-1. In words: MX-1 cell line proliferation assay, Method A. In kind it is cell-based. The conditions noted are these: Homo sapiens, MX1; MX-1 cells, 96-well, 72 hours, Cell Titer Glo; read-out: Cellular proliferation: EC50 Method A. As for the experimental part: The impact of compounds of the Examples on cancer cell proliferation was determined using the breast cancer cell line MX-1 (ATCC) in a 3-day proliferation assay and the data are reported in Table 1.
MX-1 cells were maintained in RPMI 1640 medium (Sigma) supplemented with 10% FBS at 37° C. and an atmosphere of 5% CO2. For compound testing, MX-1 cells were plated in 96-well black bottom plates at a density of 5000 cells/well in 90 μL of culture media and incubated at 370 overnight to allow cell adhesion and spreading. Compound dilution series were prepared in DMSO via a 3-fold serial dilution from 3 mM to 0.1 μM. The DMSO dilution series were then diluted 1:100 in phosphate buffered saline, and 10 μL of the resulted solution were added to the appropriate wells of the MX-1 cell plate. The final compound concentrations in the wells were 3, 1, 0.3, 0.1, 0.03, 0.01, 0.003, 0.001, 0.0003 and 0.0001 μM.
Luminescence readings from the Cell Titer Glo assay were normalized to the DMSO treated cells and analyzed using the GraphPad Prism software with sigmoidal curve fitting to obtain ECs50s. The minimum significant ratio (MSR) was determined to evaluate assay reproducibility (Eastwood et al., (2006) J Biomol Screen, 11: 253-261).

`Cn1cc(-c2cc(S(C)(=O)=O)ccc2Oc2cccc(NS(=O)(=O)c3cccc(C#N)c3)c2)c2cc[nH]c2c1=O` [Example 57, 3-cyano-N-{3-[2-(6-methyl-7-oxo-6,7-dihydro-1H-pyrrolo[2,3-c]pyridin-4-yl)-4-(methylsulfonyl)phenoxy]phenyl}benzenesulfonamide]: the EC50 was more than 1 µM.

`Cn1cc(-c2cc(S(C)(=O)=O)ccc2Oc2cccc(NS(=O)(=O)c3ccc(F)cc3Cl)c2)c2cc[nH]c2c1=O` [Example 58]: the EC50 is 0.152 µM.

As for `Cn1cc(-c2cc(S(C)(=O)=O)ccc2Oc2cccc(NCc3cccc(C#N)c3)c2)c2cc[nH]c2c1=O` [Example 60, 3-[({3-[2-(6-methyl-7-oxo-6,7-dihydro-1H-pyrrolo[2,3-c]pyridin-4-yl)-4-(methylsulfonyl)phenoxy]phenyl}amino)methyl]benzonitrile], the EC50 turned out to be 0.0641 µM.

As for `Cn1cc(-c2cc(S(C)(=O)=O)ccc2Oc2cccc(NCc3ccc(C#N)cc3)c2)c2cc[nH]c2c1=O` [Example 61, 4-[({3-[2-(6-methyl-7-oxo-6,7-dihydro-1H-pyrrolo[2,3-c]pyridin-4-yl)-4-(methylsulfonyl)phenoxy]phenyl}amino)methyl]benzonitrile], the EC50 was 0.043 µM.

As for `Cn1cc(-c2cc(S(C)(=O)=O)ccc2Oc2cccc(NCc3ccc(F)cc3)c2)c2cc[nH]c2c1=O` [Example 62, 4-[2-{3-[(4-fluorobenzyl)amino]phenoxy}-5-(methylsulfonyl)phenyl]-6-methyl-1,6-dihydro-7H-pyrrolo[2,3-c]pyridin-7-one], the EC50 worked out at 0.0511 µM.

Turning to `COCCNc1cccc(Oc2ccc(S(C)(=O)=O)cc2-c2cn(C)c(=O)c3[nH]ccc23)c1` [Example 64, 4-[2-{3-[(2-methoxyethyl)amino]phenoxy}-5-(methylsulfonyl)phenyl]-6-methyl-1,6-dihydro-7H-pyrrolo[2,3-c]pyridin-7-one], the EC50 is 0.0526 µM.

`Cn1cc(-c2cc(S(C)(=O)=O)ccc2Oc2cccc(NCC3CCCO3)c2)c2cc[nH]c2c1=O` (centres unmarked) [Example 65, 6-methyl-4-[5-(methylsulfonyl)-2-{3-[(tetrahydrofuran-2-ylmethyl)amino]phenoxy}phenyl]-1,6-dihydro-7H-pyrrolo[2,3-c]pyridin-7-one]: the EC50 was 0.04 µM.

Consider `COc1cccc(CNc2cccc(Oc3ccc(S(C)(=O)=O)cc3-c3cn(C)c(=O)c4[nH]ccc34)c2)c1` [Example 66, 4-[2-{3-[(3-methoxybenzyl)amino]phenoxy}-5-(methylsulfonyl)phenyl]-6-methyl-1,6-dihydro-7H-pyrrolo[2,3-c]pyridin-7-one], for which the EC50 came to 0.0547 µM.

Regarding `Cn1cc(-c2cc(S(C)(=O)=O)ccc2Oc2cccc(NCc3ccccc3F)c2)c2cc[nH]c2c1=O` [Example 67, 4-[2-{3-[(2-fluorobenzyl)amino]phenoxy}-5-(methylsulfonyl)phenyl]-6-methyl-1,6-dihydro-7H-pyrrolo[2,3-c]pyridin-7-one], the EC50 is 0.0506 µM.

For the compound `Cn1cc(-c2cc(S(C)(=O)=O)ccc2Oc2cccc(NCc3cccc(OC(F)(F)F)c3)c2)c2cc[nH]c2c1=O` [Example 69, 6-methyl-4-[5-(methylsulfonyl)-2-(3-{[3-(trifluoromethoxy)benzyl]amino}phenoxy)phenyl]-1,6-dihydro-7H-pyrrolo[2,3-c]pyridin-7-one], the EC50 is 0.0933 µM.

On to `Cn1cc(-c2cc(S(C)(=O)=O)ccc2Oc2cccc(NCc3cc(F)cc(F)c3)c2)c2cc[nH]c2c1=O` [Example 73, 4-[2-{3-[(3,5-difluorobenzyl)amino]phenoxy}-5-(methylsulfonyl)phenyl]-6-methyl-1,6-dihydro-7H-pyrrolo[2,3-c]pyridin-7-one], for which the EC50 was found to be 0.0624 µM.

`CN(C)CCCOc1ccc(CNc2cccc(Oc3ccc(S(C)(=O)=O)cc3-c3cn(C)c(=O)c4[nH]ccc34)c2)cc1` [Example 74, 4-{2-[3-({4-[3-(dimethylamino)propoxy]benzyl}amino)phenoxy]-5-(methylsulfonyl)phenyl}-6-methyl-1,6-dihydro-7H-pyrrolo[2,3-c]pyridin-7-one]: the EC50 was 0.0451 µM.

`CN(C)c1cccc(CNc2cccc(Oc3ccc(S(C)(=O)=O)cc3-c3cn(C)c(=O)c4[nH]ccc34)c2)c1` [Example 75, 4-[2-(3-{[3-(dimethylamino)benzyl]amino}phenoxy)-5-(methylsulfonyl)phenyl]-6-methyl-1,6-dihydro-7H-pyrrolo[2,3-c]pyridin-7-one]: the EC50 stood at 0.112 µM.

For the compound `Cn1cc(-c2cc(S(C)(=O)=O)ccc2Oc2cccc(NCc3ccc4c(c3)OCCO4)c2)c2cc[nH]c2c1=O` [Example 76, 4-[2-{3-[(2,3-dihydro-1,4-benzodioxin-6-ylmethyl)amino]phenoxy}-5-(methylsulfonyl)phenyl]-6-methyl-1,6-dihydro-7H-pyrrolo[2,3-c]pyridin-7-one], the EC50 was found to be 0.0499 µM.

Consider `Cn1cc(-c2cc(S(C)(=O)=O)ccc2Oc2cccc(NCC3CCOC3)c2)c2cc[nH]c2c1=O` (centres unmarked) [Example 77, 6-methyl-4-[5-(methylsulfonyl)-2-{3-[(tetrahydrofuran-3-ylmethyl)amino]phenoxy}phenyl]-1,6-dihydro-7H-pyrrolo[2,3-c]pyridin-7-one], for which the EC50 was 0.0692 µM.

For the compound `Cn1cc(-c2cc(S(C)(=O)=O)ccc2Oc2cccc(NCC3CC3)c2)c2cc[nH]c2c1=O` [Example 80, 4-[2-{3-[(cyclopropylmethyl)amino]phenoxy}-5-(methylsulfonyl)phenyl]-6-methyl-1,6-dihydro-7H-pyrrolo[2,3-c]pyridin-7-one], the EC50 turned out to be 0.128 µM.

In the case of `CCS(=O)(=O)c1ccc(Oc2ccc(Cl)cc2C#CCN2CCOCC2)c(-c2cn(C)c(=O)c3[nH]ccc23)c1` [Example 82, 4-[2-{4-chloro-2-[3-(morpholin-4-yl)prop-1-yn-1-yl]phenoxy}-5-(ethylsulfonyl)phenyl]-6-methyl-1,6-dihydro-7H-pyrrolo[2,3-c]pyridin-7-one], the EC50 came to 0.221 µM.

Consider `CCS(=O)(=O)c1ccc(Oc2ccc(Cl)cc2CCCN2CCOCC2)c(-c2cn(C)c(=O)c3[nH]ccc23)c1` [Example 83, 4-[2-{4-chloro-2-[3-(morpholin-4-yl)propyl]phenoxy}-5-(ethylsulfonyl)phenyl]-6-methyl-1,6-dihydro-7H-pyrrolo[2,3-c]pyridin-7-one], for which the EC50 was determined as 0.0899 µM.

As to `Cn1cc(-c2cc(S(C)(=O)=O)ccc2NC2CCN(S(=O)(=O)c3ccccc3)CC2)c2cc[nH]c2c1=O` [Example 84, 6-methyl-4-[5-(methylsulfonyl)-2-{[1-(phenylsulfonyl)piperidin-4-yl]amino}phenyl]-1,6-dihydro-7H-pyrrolo[2,3-c]pyridin-7-one], the EC50 came out at 0.0878 µM.

With `CN(C)CC(=O)N1CCC(Nc2ccc(S(C)(=O)=O)cc2-c2cn(C)c(=O)c3[nH]ccc23)CC1` [Example 85, 4-[2-({1-[(dimethylamino)acetyl]piperidin-4-yl}amino)-5-(methylsulfonyl)phenyl]-6-methyl-1,6-dihydro-7H-pyrrolo[2,3-c]pyridin-7-one], the EC50 was more than 1 µM.

Consider `CC(=O)Nc1ccc(CN2CCC(Nc3ccc(S(C)(=O)=O)cc3-c3cn(C)c(=O)c4[nH]ccc34)CC2)cc1` [Example 87, N-{4-[(4-{[2-(6-methyl-7-oxo-6,7-dihydro-1H-pyrrolo[2,3-c]pyridin-4-yl)-4-(methylsulfonyl)phenyl]amino}piperidin-1-yl)methyl]phenyl}acetamide], for which the EC50 worked out at 0.325 µM.

As for `CN1CCN(CC(=O)N2CCC(Nc3ccc(S(C)(=O)=O)cc3-c3cn(C)c(=O)c4[nH]ccc34)CC2)CC1` [Example 96, 6-methyl-4-[2-({1-[(4-methylpiperazin-1-yl)acetyl]piperidin-4-yl}amino)-5-(methylsulfonyl)phenyl]-1,6-dihydro-7H-pyrrolo[2,3-c]pyridin-7-one], the EC50 was more than 1 µM.

For the compound `Cn1cc(-c2cc(S(C)(=O)=O)ccc2NC2CCN(S(=O)(=O)Cc3ccccc3)CC2)c2cc[nH]c2c1=O` [Example 101, 4-[2-{[1-(benzylsulfonyl)piperidin-4-yl]amino}-5-(methylsulfonyl)phenyl]-6-methyl-1,6-dihydro-7H-pyrrolo[2,3-c]pyridin-7-one], the EC50 worked out at 0.0729 µM.

For the compound `COc1ccc(S(=O)(=O)N2CCC(Nc3ccc(S(C)(=O)=O)cc3-c3cn(C)c(=O)c4[nH]ccc34)CC2)cc1` [Example 104, 4-[2-({1-[(4-methoxyphenyl)sulfonyl]piperidin-4-yl}amino)-5-(methylsulfonyl)phenyl]-6-methyl-1,6-dihydro-7H-pyrrolo[2,3-c]pyridin-7-one], the EC50 was 0.176 µM.

Turning to `Cn1cc(-c2cc(S(C)(=O)=O)ccc2N[C@H]2CC[C@H](NCc3cccs3)CC2)c2cc[nH]c2c1=O` [Example 107, 6-methyl-4-[5-(methylsulfonyl)-2-({trans-4-[(thiophen-2-ylmethyl)amino]cyclohexyl}amino)phenyl]-1,6-dihydro-7H-pyrrolo[2,3-c]pyridin-7-one], the EC50 was found to be 0.0235 µM.

Consider `CC(=O)Nc1ccc(CN[C@H]2CC[C@H](Nc3ccc(S(C)(=O)=O)cc3-c3cn(C)c(=O)c4[nH]ccc34)CC2)cc1` [Example 108, N-(4-{[(trans-4-{[2-(6-methyl-7-oxo-6,7-dihydro-1H-pyrrolo[2,3-c]pyridin-4-yl)-4-(methylsulfonyl)phenyl]amino}cyclohexyl)amino]methyl}phenyl)acetamide], for which the EC50 came to 0.299 µM.
